Literature values in patent US20160082021A1, “PHARMACEUTICAL COMPOSITION OF DOXYCYCLINE WITH REDUCED FOOD EFFECT” (SUN PHARMACEUTICAL INDUSTRIES LIMITED, priority 2014, published 2016).

Settings: oral versus intravenous doses

- absorption for oral administration: 73-77%
Structure (SMILES): C[C@H]1c2cccc(O)c2C(=O)C2=C(O)[C@]3(O)C(=O)C(C(N)=O)=C(O)[C@@H](N(C)C)[C@@H]3[C@@H](O)[C@@H]21 [doxycycline]
